Data: patent US10519151B2, “Substituted [1,2,4]triazolo[4,3-A]pyridines, their preparation and their use as pharmaceuticals” (NEOMED Institute, priority 2016, dated 2019)

Tested on: human C-Myc gene transcription in MV-4-11 cells
Assay: Transcription of human C-Myc in human leukemic MV-4-11 cells (QuantiGene 2.0 assay)
Assay type: cell-based
Conditions: MV4-11, 4 hours treatment, C-Myc mRNA by QuantiGene 2.0, read-out: IC50 (inhibition of C-Myc transcription)
Method: Transcription of Human C-Myc in Human Leukemic MV-4-11 Cells
The effect of compounds on transcription of human C-Myc gene is monitored in human B-myelomonocytic leukemia cell line MV-4-11 (from American Type Culture Collection (ATCC), Manassas, Va., USA) using QuantiGene 2.0 assay kit (Affymetrix, Santa Clara, Calif., USA).
Typically, 8,000 MV-4-11 cells are plated in sterile 96-well plates (Costar #3598 from Fisher Scientific Canada, Ottawa, Ontario, Canada) in Iscove's medium supplemented with 10% fetal bovine serum, glutamine (2 mM), and penicillin (100 I.U.) and streptomycin (100 μg/mL) (all from Wisent Inc., St. Bruno, Quebec, Canada). Compounds are dissolved in DMSO at 30 mM. A series of 1:3 dilutions are first made in DMSO, and further […] dilutions are made in serum-containing cell culture media. The final concentration of DMSO is 0.1% in cell culture media. After cells are treated with various concentrations of test compound for 4 hours, cells are lysed using Quantigene 2.0 sample processing kit (#QS0100). C-Myc mRNA is detected using a QuantiGene 2.0 assay kit (#QS0009) with gene-specific probe to human C-Myc (#SA-50182) following the manufacturer's recommendations. Luminescence signals are read on Flexstation II microplate reader (Molecular Devices, Sunnyvale, Calif., USA).

Structure (SMILES) | IC50 [nM]
Cc1cc(-c2ccc3nnc(Cc4cccc(C(F)(F)F)c4)n3c2)cn(C)c1=O [Compound 5, 1,3-dimethyl-5-[3-[[3-(trifluoromethyl)phenyl]methyl]-[1,2,4]triazolo[4,3-a]pyridin-6-yl]pyridin-2-one] | 146
Cc1cc(-c2ccc3nnc(C4(c5cccc(Cl)c5)CC4)n3c2)cn(C)c1=O [Compound 14, 5-[3-[1-(3-chlorophenyl)cyclopropyl]-[1,2,4]triazolo[4,3-a]pyridin-6-yl]-1,3-dimethyl-pyridin-2-one] | 89
Cc1cc(-c2ccc3nnc(C4(c5ccccc5)CC4)n3c2)cn(C)c1=O [Compound 11, 1,3-dimethyl-5-[3-(1-phenylcyclopropyl)-[1,2,4]triazolo[4,3-a]pyridin-6-yl]pyridin-2-one] | 90
Cc1cc(-c2ccc3nnc([C@H](C)c4ccccc4)n3c2)cn(C)c1=O [Compound 12, 1,3-dimethyl-5-[3-[(1R)-1-phenylethyl]-[1,2,4]triazolo[4,3-a]pyridin-6-yl]pyridin-2-one] | 100
Cc1cc(-c2ccc3nnc(Cc4ccc(Cl)cc4)n3c2)cn(C)c1=O [Compound 4, 5-[3-[(4-chlorophenyl)methyl]-[1,2,4]triazolo[4,3-a]pyridin-6-yl]-1,3-dimethyl-pyridin-2-one] | 156
Cc1cc(-c2ccc3nnc(CC4CCCCC4)n3c2)cn(C)c1=O [Compound 8, 5-[3-(cyclohexylmethyl)-[1,2,4]triazolo[4,3-a]pyridin-6-yl]-1,3-dimethyl-pyridin-2-one] | 158
Cc1cc(-c2ccc3nnc(Cc4ccc(F)cc4)n3c2)cn(C)c1=O [Compound 3, 5-[3-[(4-fluorophenyl)methyl]-[1,2,4]triazolo[4,3-a]pyridin-6-yl]-1,3-dimethyl-pyridin-2-one] | 495
Cc1cc(-c2ccc3nnc(Cc4ccccc4)n3c2)cn(C)c1=O [Compound 1, 5-(3-benzyl-[1,2,4]triazolo[4,3-a]pyridin-6-yl)-1,3-dimethyl-pyridin-2-one] | 253
Cc1cc(-c2ccc3nnc(C4(c5ccc(Cl)cc5)CC4)n3c2)cn(C)c1=O [Compound 15, 5-[3-[1-(4-chlorophenyl)cyclopropyl]-[1,2,4]triazolo[4,3-a]pyridin-6-yl]-1,3-dimethyl-pyridin-2-one] | 250
Cc1cc(-c2ccc3nnc(Cc4ccccc4F)n3c2)cn(C)c1=O [Compound 6, 5-[3-[(2-fluorophenyl)methyl]-[1,2,4]triazolo[4,3-a]pyridin-6-yl]-1,3-dimethyl-pyridin-2-one] | 461
Cc1cc(-c2ccc3nnc(C(C)(C)c4ccc(Cl)cc4)n3c2)cn(C)c1=O [Compound 17, 5-[3-[1-(4-chlorophenyl)-1-methyl-ethyl]-[1,2,4]triazolo[4,3-a]pyridin-6-yl]-1,3-dimethyl-pyridin-2-one] | 590
Cc1cc(-c2ccc3nnc(Cc4ccc(C(F)(F)F)cc4)n3c2)cn(C)c1=O [Compound 10, 1,3-dimethyl-5-[3-[[4-(trifluoromethyl)phenyl]methyl][1,2,4]triazolo[4,3-a]pyridin-6-yl]pyridin-2-one] | 484
Cc1cc(-c2ccc3nnc(Cc4cccc(F)c4)n3c2)cn(C)c1=O [Compound 13, 5-[3-[(3-fluorophenyl)methyl]-[1,2,4]triazolo[4,3-a]pyridin-6-yl]-1,3-dimethyl-pyridin-2-one] | 269
Cc1cc(-c2ccc3nnc(Cc4cc(F)cc(F)c4)n3c2)cn(C)c1=O [Compound 9, 5-[3-[(3,5-difluorophenyl)methyl]-[1,2,4]triazolo[4,3-a]pyridin-6-yl]-1,3-dimethyl-pyridin-2-one] | 183
Cc1cc(-c2ccc3nnc(CC4CCOCC4)n3c2)cn(C)c1=O [Compound 2] | 2340
Cc1ccc(C2(c3nnc4ccc(-c5cc(C)c(=O)n(C)c5)cn34)CC2)cc1 [Compound 16, 1,3-dimethyl-5-[3-[1-(p-tolyl)cyclopropyl]-[1,2,4]triazolo[4,3-a]pyridin-6-yl]pyridin-2-one] | 226
Cc1cc(-c2ccc3nnc([C@@H](C)c4ccccc4)n3c2)cn(C)c1=O [Compound 7, 1,3-dimethyl-5-[3-[(1 S)-1-phenylethyl]-[1,2,4]triazolo[4,3-a]pyridin-6-yl]pyridin-2-one] | 85

The next lines start with the values.

IC50 [nM] | Structure (SMILES)
563 | Cc1cc(-c2ccc3nnc(C4(c5ccc(Cl)cc5)CCC4)n3c2)cn(C)c1=O [Compound 18, 5-[3-[1-(4-chlorophenyl)cyclobutyl]-[1,2,4]triazolo[4,3-a]pyridin-6-yl]-1,3-dimethyl-pyridin-2-one]
90 | Cc1cc(-c2ccc3nnc(C(C)(C)c4cccc(Cl)c4)n3c2)cn(C)c1=O [Compound 24, 5-[3-[1-(3-chlorophenyl)-1-methyl-ethyl]-[1,2,4]triazolo[4,3-a]pyridin-6-yl]-1,3-dimethyl-pyridin-2-one]
88 | Cc1cccc(C2(c3nnc4ccc(-c5cc(C)c(=O)n(C)c5)cn34)CC2)c1 [Compound 19, 1,3-dimethyl-5-[3-[1-(m-tolyl)cyclopropyl]-[1,2,4]triazolo[4,3-a]pyridin-6-yl]pyridin-2-one]
54 | Cc1cc(-c2ccc3nnc(C4(c5ccccc5)CCCCC4)n3c2)cn(C)c1=O [Compound 25, 1,3-dimethyl-5-[3-(1-phenylcyclohexyl)-[1,2,4]triazolo[4,3-a]pyridin-6-yl]pyridin-2-one]
227 | Cc1cc(-c2ccc3nnc(C(C)(C)c4ccccc4)n3c2)cn(C)c1=O [Compound 27, 1,3-dimethyl-5-[3-(1-methyl-1-phenyl-ethyl)-[1,2,4]triazolo[4,3-a]-pyridin-6-yl]pyridin-2-one]
835 | Cc1cc(-c2ccc3nnc(CCc4ccccc4)n3c2)cn(C)c1=O [Compound 26, 1,3-dimethyl-5-[3-(2-phenylethyl)-[1,2,4]triazolo[4,3-a]pyridin-6-yl]pyridin-2-one]
74 | Cc1cc(-c2ccc3nnc(C4(c5ccccc5)CCC4)n3c2)cn(C)c1=O [Compound 22, 1,3-dimethyl-5-[3-(1-phenylcyclobutyl)-[1,2,4]triazolo[4,3-a]pyridin-6-yl]pyridin-2-one]
85 | Cc1cc(-c2ccc3nnc(C4(c5ccccc5)CCCC4)n3c2)cn(C)c1=O [Compound 23, 1,3-dimethyl-5-[3-(1-phenylcyclopentyl)-[1,2,4]triazolo[4,3-a]pyridin-6-yl]pyridin-2-one]
158 | Cc1cc(-c2ccc3nnc(C4(c5cccc(F)c5)CC4)n3c2)cn(C)c1=O [Compound 21, 5-[3-[1-(3-fluorophenyl)cyclopropyl]-[1,2,4]triazolo[4,3-a]pyridin-6-yl]-1,3-dimethyl-pyridin-2-one]
61 | Cc1cc(-c2ccc3nnc(C4(c5cccc(C(F)(F)F)c5)CC4)n3c2)cn(C)c1=O [Compound 20, 1,3-dimethyl-5-[3-[1-[3-(trifluoromethyl)phenyl]cyclopropyl][1,2,4]-triazolo[4,3-a]pyridin-6-yl]pyridin-2-one]
